Measured values as given in ChEMBL document CHEMBL1156415, “Selective inhibition of porcine endogenous retrovirus replication in human cells by acyclic nucleoside phosphonates” (Antimicrob Agents Chemother, 2007).

Key:
[1] = tested on: Porcine endogenous retrovirus; experiment: Antiviral activity against PERV infected in human 293T cells assessed as inhibition of proximal DNA synthesis after 24 hrs by RT-PCR; format: functional, organism-based; details: Porcine type-C oncovirus, HEK-293T
[2] = Cytotoxicity against human 293T cells assessed as inhibition of cell proliferation by tetrazolium dye method; format: cell-based, HEK-293T
[3] = Inhibition of PERV reverse transcriptase from pig PK15 cells; format: cell-based, Porcine endogenous retrovirus
[4] = Inhibition of PERV reverse transcriptase from Kagoshima pig KK5 cells; parameters: species or system Porcine endogenous retrovirus
[5] = Inhibition of PERV reverse transcriptase from Kagoshima pig DRK4 cells; parameters: species or system Porcine endogenous retrovirus
[6] = target: Human immunodeficiency virus type 1 reverse transcriptase (Human immunodeficiency virus 1, UniProt Q72547); experiment: Inhibition of HIV1 recombinant reverse transcriptase

EC50 [1] [nM] | IC50 [3] [nM] | IC50 [4] [nM] | IC50 [5] [nM] | IC50 [6] [nM] | Compound | CC50 [2] [nM]
> 100000 | – | – | – | – | Cc1cn([C@H]2C[C@H](O)[C@](CO)(N=[N+]=[N-])O2)c(=O)[nH]c1=O | > 100000
180 | – | – | – | – | Nc1cc(OCCOCP(=O)(O)O)nc(N)n1 | > 100000
280 | – | – | – | – | C[C@H](Cn1cnc2c(N)nc(N)nc21)OCP(=O)(O)O | > 100000
> 100000 | – | – | – | – | C#C[C@@]1(CO)C=C[C@H](n2cc(C)c(=O)[nH]c2=O)O1 [CENSAVUDINE] | > 100000
> 100000 | – | – | – | – | Nc1ccn([C@@H]2CS[C@H](CO)O2)c(=O)n1 [LAMIVUDINE] | > 100000
– | 450 | 150 | 170 | 36 | Cc1cn([C@H]2C=C[C@@H](COP(=O)(O)OP(=O)(O)OP(=O)(O)O)O2)c(=O)[nH]c1=O [STAVUDINE TRIPHOSPHATE] | –
7800 | – | – | – | – | Cc1cn([C@H]2C=C[C@@H](CO)O2)c(=O)[nH]c1=O [STAVUDINE] | > 100000
2800 | – | – | – | – | C[C@H](Cn1cnc2c(N)ncnc21)OCP(=O)(O)O [TENOFOVIR ANHYDROUS] | > 100000
– | 59 | 19 | 20 | 54 | Cc1cn([C@H]2C[C@H](N=[N+]=[N-])[C@@H](COP(=O)(O)OP(=O)(O)OP(=O)(O)O)O2)c(=O)[nH]c1=O [ZIDOVUDINE TRIPHOSPHATE] | –
23 | – | – | – | – | Cc1cn([C@H]2C[C@H](N=[N+]=[N-])[C@@H](CO)O2)c(=O)[nH]c1=O [ZIDOVUDINE] | > 10000

Compound | EC50 [1] [nM] | IC50 [3] [nM] | IC50 [4] [nM] | IC50 [5] [nM] | IC50 [6] [nM] | CC50 [2] [nM]
Nc1ncnc2c1ncn2CCOCP(=O)(O)O [ADEFOVIR] | 3400 | – | – | – | – | > 100000
Cc1ccnc2c1NC(=O)c1cccnc1N2C1CC1 [NEVIRAPINE] | > 100000 | – | – | – | – | > 100000
